# Data reported in patent US20040254224A1, “Medicaments” (priority 2001, published 2004).
# Target: HM74 (Homo sapiens, UniProt P49019)
# Details: membranes from HM74-expressing HEK293T cells, co-expressed with Go1α
# Protocol: HEK293T cells (HEK293 cells stably expressing the SV40 large T-antigen) were maintained in DMEM containing 10% (v/v) foetal calf serum and 2 mM glutamine. Cells were seeded in 60 mm culture dishes and grown to 60-80% confluency (18-24 h) prior to transfection with pCDNA3 containing the relevant DNA species using Lipofectamine reagent. For transfection, 3 μg of DNA was mixed with 10 μl of Lipofectamine in 0.2 ml of Opti-MEM (Life Technologies Inc.) and was incubated at room temperature for 30 min prior to the addition of 1.6 ml of Opti-MEM. Cells were exposed to the Lipofectamine/DNA mixture for 5 h and 2 ml of 20% (v/v) newborn calf serum in DMEM was then added. Cells were harvested 48-72 h after transfection.
# Plasma membrane-containing P2 particulate fractions were prepared from cell pastes frozen at −80° C. after harvest. All procedures were carried out at 4° C. Cell pellets were resuspended in 1 ml of 10 mM Tris-HCl and 0.1 mM EDTA, pH 7.5 (buffer A) and by homogenisation for 20 s with a polytron homogeniser followed by passage (5 times) through a 25-guage needle. Cell lysates were centrifuged at 1,000 g for 10 min in a microcentrige to pellet the nuclei and unbroken cells and P2 particulate fractions were recovered by microcentrifugation at 16,000 g for 30 min. P2 particulate fractions were resuspended in buffer A and stored at −80° C. until required.
# Sequence of HM74 (P49019 whole entry): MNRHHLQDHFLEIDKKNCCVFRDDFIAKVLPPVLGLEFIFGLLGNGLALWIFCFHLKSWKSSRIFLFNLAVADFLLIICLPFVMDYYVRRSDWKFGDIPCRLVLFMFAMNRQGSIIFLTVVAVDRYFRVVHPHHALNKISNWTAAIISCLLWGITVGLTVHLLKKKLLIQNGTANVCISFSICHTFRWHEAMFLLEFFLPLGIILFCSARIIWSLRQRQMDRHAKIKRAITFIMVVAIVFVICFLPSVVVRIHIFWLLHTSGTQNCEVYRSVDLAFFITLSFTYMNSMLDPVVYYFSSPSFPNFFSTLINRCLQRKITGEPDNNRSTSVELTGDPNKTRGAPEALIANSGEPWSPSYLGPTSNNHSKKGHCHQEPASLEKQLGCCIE
compound,measurement,value
O=C(O)CNC(=O)c1cccnc1 [nicotinuric acid],stimulation of [35S]GTPγS binding,not found to alter basal
